From patent publication US10813896B2, “Treatment of intrahepatic cholestatic diseases” (CymaBay Therapeutics, Inc., priority 2017, dated 2020)
Like-named read-outs stand apart in the source and are kept apart here.

Tests used:
[1] = system: subjects with mixed dyslipidemia; conditions: 8 weeks, cited from earlier work
subjects with PBC [2] = assay: High dose trial in PBC (NCT02609048); type: in vivo, human; conditions: for cases of asymptomatic increases in transaminases: reversible on cessation of treatment, no elevation of TBIL; for mean decrease from baseline in ALP: last observation carried forward, at least two weeks of treatment; for reduction of LDL-C: after two weeks of dosing
Excerpt: The trial subjects were adult, male or female, with a diagnosis of PBC by at least two of the following three criteria: (a) a history of alkaline phosphatase (ALP) above the upper limit of normal (ULN) for at least six months, (b) positive anti-mitochondrial antibody titers >1/40 on immunofluorescence or M2 positive by enzyme linked immunosorbent assay or positive PBC-specific antinuclear antibodies, and (c) documented liver biopsy result consistent with PBC, on a stable and recommended dose of UDCA for the past twelve months or UDCA intolerant, and ALP≥1.67×ULN. Exclusion criteria included AST or ALT≥3×ULN, total bilirubin (TBIL)≥2×ULN, autoimmune hepatitis or a history of chronic viral hepatitis, PSC, the current use of fibrates or simvastatin, the use of colchicine, methotrexate, azathioprine, or systemic steroids in the previous two months, the use of an experimental treatment for PBC, and the use of an experimental or unapproved immunosuppressant. The primary study endpoint was decrease in ALP, and the secondary endpoint was the responder rate for subjects achieving ALP<1.67×ULN and total bilirubin within normal limit, and >15% decrease in ALP. Additional secondary endpoints were changes in GGT, TBIL, and 5′-nucleotidase, which are other recognized biochemical markers of cholestasis. […] During the study, three cases of asymptomatic increases in transaminases were observed (two in the 200 mg and one in the 50 mg groups). All three were reversible on cessation of treatment and were not accompanied by elevation of TBIL. Since the study had already shown a clear efficacy signal, the study was discontinued. […] According to the original statistical plan, changes in ALP were calculated using the last observation carried forward. The mean decreases from baseline in ALP for the 50 mg/day and 200 mg/day dose groups were 57% and 62%, respectively, compared with 0.37% for placebo (p<0.0001 for both). The responder rates for the placebo, 50 mg/day, and 200 mg/day groups were 10%, 67% and 100%, respectively, despite the baseline ALP levels being different at 239, 313, and 280 U/L. The p-values comparing the responder rates for the 50 mg/day and 200 mg/day groups with placebo were 0.020 and 0.0004 (Fisher's Exact Test), respectively.

subjects with PBC [3] = assay: Low-dose trial in PBC (NCT02955602); type: in vivo, human
Procedure: In the main study, running for 12 weeks, subjects were to receive either 2, 5, or 10 mg/day; while in an extension study, running for an additional 40 weeks, subjects in the 2 mg/day group were allowed to continue at the 2 mg/day dose or shift to either 5 or 10 mg/day, subjects in the 5 mg/day group were allowed to continue at the 5 mg/day dose or shift to 10 mg/day, and subjects in the 10 mg/day group were allowed to continue at the 10 mg/day dose or shift to 5 mg/day. At baseline (the mean of the screening values and the value at day 1), the subjects had the following values, with numbers in parentheses denoting standard deviations: The study has now been analyzed through 26 weeks: the 12 weeks of the main study and 14 weeks of the extension study.

PPARα = biological target: T1, PPARα (Homo sapiens, UniProt Q07869); conditions: PPARδ vs PPARα; cited from earlier work
T1 sequence (Q07869 1-468): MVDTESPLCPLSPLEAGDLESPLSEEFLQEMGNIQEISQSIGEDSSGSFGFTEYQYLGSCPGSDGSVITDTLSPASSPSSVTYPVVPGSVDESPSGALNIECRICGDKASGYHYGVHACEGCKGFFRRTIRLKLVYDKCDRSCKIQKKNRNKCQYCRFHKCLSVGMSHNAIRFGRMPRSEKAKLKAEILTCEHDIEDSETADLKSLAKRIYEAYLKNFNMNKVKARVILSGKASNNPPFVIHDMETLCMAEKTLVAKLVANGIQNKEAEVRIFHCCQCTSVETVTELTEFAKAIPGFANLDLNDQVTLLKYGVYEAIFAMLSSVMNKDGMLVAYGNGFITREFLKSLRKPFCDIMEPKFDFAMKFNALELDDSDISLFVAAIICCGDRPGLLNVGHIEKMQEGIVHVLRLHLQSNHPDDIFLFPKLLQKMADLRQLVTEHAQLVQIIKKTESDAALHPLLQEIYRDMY

[4] = system: subjects with an intrahepatic cholestatic disease such as PSC; assay: Trial in PSC; type: in vivo, human; conditions: 1, 2, 5, and 10 mg/day oral
Procedure: Subjects are permitted their usual other medications, including UDCA. […] At each visit, after a 12-hour fast, blood is drawn and urine collected; and a standard metabolic panel, complete blood count, and standard urinalysis are performed. Blood is analyzed for TC, HDL-C, TG, VLDL-C, LDL-C, and apolipoprotein B, for liver function markers such as total and bone-specific ALP, for GGT, and also for total and conjugated bilirubin. The subjects also maintain health diaries, which are reviewed at each visit.

[5] = Preclinical study of elimination; type: in vivo
[6] = Exposure study in hepatic impairment (Child-Pugh classes B and C); type: in vivo, human; conditions: subjects with significant hepatic impairment
Excerpt: These amounts represent an average daily dose, and not necessarily an amount given at a single dose. Dosing may be as frequent as more than once/day (where the amount, or daily dose, will be divided between the number of administrations per day), but will more typically be once/day (where the amount is given in a single administration). Optionally, particularly in cases of significant hepatic impairment, the dosing may be less frequent than once/day, such as between once/week and every other day, for example once/week, twice/week (especially with the doses at least three days apart), three times/week (especially with the doses at least two days apart), or every other day; so that, as an example, a subject may receive 5 mg twice/week for an amount (daily dose) of 1.4 mg/day.

[7] = seladelpar 50 or 100 mg alone or combined with ATV 20 mg, once daily oral, compared to placebo
[8] = combined 5 mg/day and 5 to 10 mg/day group, 26 weeks
[9] = through 26 weeks, 2, 5, 10 mg/day

For `CC(C)c1c(C(=O)Nc2ccccc2)c(-c2ccccc2)c(-c2ccc(F)cc2)n1CC[C@@H](O)C[C@@H](O)CC(=O)O` [ATV, atorvastatin, reference compound], the “increase of GGT” value ([1]; ATV 20 mg group) is given as 2% and the “reduction of ALP” value ([1]; ATV 20 mg group) is given as 6%.

In the case of `CCO[C@H](COc1ccc(C(F)(F)F)cc1)CSc1ccc(OCC(=O)O)c(C)c1` [seladelpar, [4-({(2R)-2-ethoxy-3-[4-(trifluoromethyl)phenoxy]propyl}sulfanyl)-2-methylphenoxy] acetic acid], the “cases of asymptomatic increases in transaminases” value (subjects with PBC [2]; 50 mg group) is reported as “one”, the “responder rate (ALP<1.67×ULN, total bilirubin within normal limit, >15% decrease in ALP)” value (subjects with PBC [2]; 50 mg/day) is reported as 67% and the “mean decrease from baseline in ALP” value (subjects with PBC [2]; 50 mg/day oral) is reported as 57%. The “reduction of LDL-C” value (subjects with PBC [2]; 50 mg/day) was 16%, the “cases of asymptomatic increases in transaminases” value (subjects with PBC [2]; 200 mg group) was “two” and the “responder rate (ALP<1.67×ULN, total bilirubin within normal limit, >15% decrease in ALP)” value (subjects with PBC [2]; 200 mg/day) was 100%. The “mean decrease from baseline in ALP” value (subjects with PBC [2]; 200 mg/day oral) was 62%, the “reduction of LDL-C” value (subjects with PBC [2]; 200 mg/day) was 26% and the “adverse events of pruritus” value (subjects with PBC [2]; on treatment, 50 and 200 mg/day) was “no adverse events of pruritus were reported on treatment”. The “reduction of LDL” value [1, 7] was 18-43%, the “reduction of apolipoprotein B-100” value [1, 7] was 20-38% and the “reduction of free fatty acids” value [1, 7] was 16-28%. The “reduction of high-sensitivity C-reactive protein (hs-CRP)” value [1, 7] was 43-72%, the “reduction of non-HDL-C” value [1, 7] was 18-41% and the “reduction of triglycerides (TGs)” value [1, 7] was 26-30%. The “rise of HDL-C” value [1, 7] was 1-12%, the “number of patients with the metabolic syndrome and a preponderance of small LDL particles” value ([1]; seladelpar alone and in combination with ATV) was “reduced the number of patients with the metabolic syndrome and a preponderance of small LDL particles” and the “reduction of ALP” value ([1]; seladelpar groups) was 32-43%. The “reduction of GGT” value ([1]; seladelpar groups) was 24-28%, the “mean reduction in ALP” value (subjects with PBC [3]; 2 mg/day, 12 weeks) was 21% and the “mean reduction in ALT” value (subjects with PBC [3]; 2 mg/day, 12 weeks) was 9%. The “mean reduction in ALP” value (subjects with PBC [3]; 5 mg/day, 12 weeks) was 33%, the “mean reduction in ALT” value (subjects with PBC [3]; 5 mg/day, 12 weeks) was 28% and the “mean reduction in ALP” value (subjects with PBC [3]; 5 mg/day, 26 weeks) was 45%. For the same compound, the “mean reduction in ALT” value (subjects with PBC [3]; 10 mg/day group, 26 weeks) was 43%, the “subjects with ALP≤1.67×ULN” value (subjects with PBC [3]; 10 mg/day group, 26 weeks) was 79% and the “subjects with ALP≤ULN” value (subjects with PBC [3]; 10 mg/day group, 26 weeks) was 32%. The “subjects with TBIL≤ULN” value (subjects with PBC [3]; 10 mg/day group, 26 weeks) was 89%, the “subjects with a decrease in ALP of ≥15%” value (subjects with PBC [3]; 10 mg/day group, 26 weeks) was 89% and the “mean reduction in ALP” value (subjects with PBC [3]; 10 mg/day, 12 weeks) was 45%. The “mean reduction in ALT” value (subjects with PBC [3]; 10 mg/day, 12 weeks) was 35%, the “mean reduction in ALP” value (subjects with PBC [3]; 10 mg/day, 26 weeks) was 43% and the “mean reduction in ALP” value (subjects with PBC [3]; 5 to 10 mg/day, 26 weeks) was 43%. For the same compound, the “mean reduction in ALT” value (subjects with PBC [3]; [8]) was 40%, the “subjects with ALP≤1.67×ULN” value (subjects with PBC [3]; [8]) was 68% and the “subjects with ALP≤ULN” value (subjects with PBC [3]; [8]) was 26%. For the same compound, the “subjects with TBIL≤ULN” value (subjects with PBC [3]; [8]) was 95%, the “subjects with a decrease in ALP of ≥15%” value (subjects with PBC [3]; [8]) was 95% and the “signals for drug-induced pruritus” value (subjects with PBC [3]; [9]) was “no signals for drug-induced pruritus”. The transaminase safety signals (subjects with PBC [3]; [9]) was “No transaminase safety signals”, the serious adverse events (subjects with PBC [3]; through 26 weeks, all doses, all deemed unrelated to seladelpar) was 6 and the “adverse events leading to seladelpar discontinuation” value (subjects with PBC [3]; through 26 weeks, all doses, both deemed unrelated to seladelpar) was 2. The “specificity compared with PPARα” value (PPARα) was over 600 fold, the “improvement in disease, manifested by decrease in ALP and GGT” value [4] was “improvement in their disease” and the “concentration of the drug in bile” value [5] was “concentrated in bile”. The “main route of elimination” value [5] was “through bile”, the “area-under-the-curve exposure for seladelpar and two of its three principal metabolites” value [6] was “increase” and the “maximum plasma concentration of seladelpar” value [6] was “significant increase”.
